Laboratory results: paper PMC10392026, “Vacuolar Phosphate Transporter1 (VPT1) may transport sugar in response to soluble sugar status of grape fruits” (Horticulture Research, 2022)

Legend:
Assay type in all cases: cell-based
VvVPT1 = biological target: T1, VvVPT1 (Vitis vinifera, UniProt D7TW83); experiment: fluorescent uptake in yeast, confocal microscopy; details: 60 uM 2-NBDG, 30 °C, 3 h; EBY.VW4000 yeast
T1 construct: gene VIT_02s0025g04540; full-length CDS (698 residues implied by VvVPT1_155-698) in pDR195, expressed in yeast hexose transport mutant EBY.VW4000

AtVPT1 = biological target: T2, AtVPT1 (Arabidopsis thaliana, UniProt F4I0G7); details: 1-20 mM Pi, 30 °C, 5 d; indirect growth read-out
T2 construct: gene VPT1; full-length CDS (708 residues implied by AtVPT1_162-708) in pRS426, expressed in yeast Pi uptake mutant YP101

FaVPT1 [1] = biological target: T3, FaVPT1 (Fragaria x ananassa, UniProt Z9SEB9UZJ4); experiment: yeast growth complementation (SUSY7/ura3); details: […] (w/v) Suc as sole carbon source, […] °C; indirect growth read-out
T3 construct: full-length CDS (696 residues implied by FaVPT1_147-696) in pDR195, expressed in yeast sucrose transport mutant SUSY7/ura3
T3 sequence (Z9SEB9UZJ4 1-696): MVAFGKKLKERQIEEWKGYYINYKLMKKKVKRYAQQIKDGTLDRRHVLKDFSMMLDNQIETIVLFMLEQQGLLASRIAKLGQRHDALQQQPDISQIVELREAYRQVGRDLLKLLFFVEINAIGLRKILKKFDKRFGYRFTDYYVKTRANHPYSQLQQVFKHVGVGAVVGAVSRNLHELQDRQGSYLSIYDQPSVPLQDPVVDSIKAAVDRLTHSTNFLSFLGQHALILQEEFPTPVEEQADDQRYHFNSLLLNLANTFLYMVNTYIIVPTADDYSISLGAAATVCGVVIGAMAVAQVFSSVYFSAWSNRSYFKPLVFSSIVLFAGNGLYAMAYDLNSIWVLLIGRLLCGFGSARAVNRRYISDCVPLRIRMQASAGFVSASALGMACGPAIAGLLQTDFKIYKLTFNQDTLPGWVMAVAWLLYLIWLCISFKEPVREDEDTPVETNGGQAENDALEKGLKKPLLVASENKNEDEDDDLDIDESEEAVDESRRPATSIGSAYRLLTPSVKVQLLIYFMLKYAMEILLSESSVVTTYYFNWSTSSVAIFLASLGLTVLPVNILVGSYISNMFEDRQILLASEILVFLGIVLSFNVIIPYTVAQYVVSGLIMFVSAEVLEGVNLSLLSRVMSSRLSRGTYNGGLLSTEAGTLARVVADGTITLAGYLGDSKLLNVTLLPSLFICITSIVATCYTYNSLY

FaVPT1 [2] = biological target: T3, FaVPT1; experiment: fluorescent uptake in yeast, confocal microscopy; details: […] esculin, […] Na2HPO4 pH […] °C, […] h; SUSY7/ura3 yeast

T1 sequence (D7TW83 entry or part of it): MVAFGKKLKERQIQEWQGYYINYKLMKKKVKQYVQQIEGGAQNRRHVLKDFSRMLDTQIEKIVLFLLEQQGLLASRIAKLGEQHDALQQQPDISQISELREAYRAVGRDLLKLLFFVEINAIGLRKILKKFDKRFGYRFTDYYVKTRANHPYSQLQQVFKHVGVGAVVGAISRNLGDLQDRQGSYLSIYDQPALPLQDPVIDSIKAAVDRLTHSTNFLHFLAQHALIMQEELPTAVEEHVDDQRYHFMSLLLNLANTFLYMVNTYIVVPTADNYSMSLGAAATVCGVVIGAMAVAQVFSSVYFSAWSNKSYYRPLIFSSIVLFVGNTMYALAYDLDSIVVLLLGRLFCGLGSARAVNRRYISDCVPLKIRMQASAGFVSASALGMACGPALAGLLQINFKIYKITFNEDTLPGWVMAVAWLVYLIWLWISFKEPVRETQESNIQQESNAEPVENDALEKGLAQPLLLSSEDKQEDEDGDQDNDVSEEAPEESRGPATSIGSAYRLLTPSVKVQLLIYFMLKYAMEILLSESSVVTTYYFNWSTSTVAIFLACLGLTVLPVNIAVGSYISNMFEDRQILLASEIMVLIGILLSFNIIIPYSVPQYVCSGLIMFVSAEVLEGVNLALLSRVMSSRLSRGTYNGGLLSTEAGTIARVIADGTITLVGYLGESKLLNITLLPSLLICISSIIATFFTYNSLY
T2 sequence (F4I0G7 1-708): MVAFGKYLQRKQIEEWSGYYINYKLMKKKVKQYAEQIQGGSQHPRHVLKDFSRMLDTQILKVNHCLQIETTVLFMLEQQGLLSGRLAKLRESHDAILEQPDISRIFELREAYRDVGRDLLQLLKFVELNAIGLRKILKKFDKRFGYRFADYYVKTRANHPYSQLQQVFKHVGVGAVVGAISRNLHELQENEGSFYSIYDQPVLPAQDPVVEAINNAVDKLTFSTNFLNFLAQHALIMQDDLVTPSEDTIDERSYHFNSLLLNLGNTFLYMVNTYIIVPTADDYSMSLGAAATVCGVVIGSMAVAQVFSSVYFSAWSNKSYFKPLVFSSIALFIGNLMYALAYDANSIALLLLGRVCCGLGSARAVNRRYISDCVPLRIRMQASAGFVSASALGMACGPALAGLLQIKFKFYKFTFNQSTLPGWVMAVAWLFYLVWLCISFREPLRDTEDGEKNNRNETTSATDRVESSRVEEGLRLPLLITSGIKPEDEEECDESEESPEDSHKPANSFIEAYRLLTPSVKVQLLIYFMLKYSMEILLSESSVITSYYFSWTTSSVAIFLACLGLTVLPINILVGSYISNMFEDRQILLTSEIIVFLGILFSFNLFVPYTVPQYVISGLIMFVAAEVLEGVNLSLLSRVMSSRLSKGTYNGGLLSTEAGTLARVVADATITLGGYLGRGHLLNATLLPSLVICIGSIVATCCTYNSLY

In the case of `O=[N+]([O-])c1ccc(N[C@H]2C(O)O[C@H](CO)[C@@H](O)[C@@H]2O)c2nonc12` (stereo partly drawn) [2-NBDG, 2-[N-(7-nitrobenz-2-oxa-1,3-diazol-4-yl)amino]-2-deoxy-d-Glc], the “fluorescent uptake in yeast, confocal microscopy” value (VvVPT1) is reported as “The fluorescence in VvVPT1-expressed yeast strain was stronger than that of the WT”.
`O=P(O)(O)O` [Pi] was tested, and the “yeast growth complementation (YP101)” value (AtVPT1) was “The yeast mutant transformed with FaVPT1, VvVPT1, or AtVPT1 restored growth”.
`OC[C@H]1O[C@@](CO)(O[C@H]2O[C@H](CO)[C@@H](O)[C@H](O)[C@H]2O)[C@@H](O)[C@@H]1O` [Suc] was tested, and the “yeast growth complementation (SUSY7/ura3)” value (FaVPT1 [1]) was “only FaVPT1 has sucrose transport capacity”.
For `O=c1ccc2cc(O[C@@H]3O[C@H](CO)[C@@H](O)[C@H](O)[C@H]3O)c(O)cc2o1` [esculin], the “fluorescent uptake in yeast, confocal microscopy” value (FaVPT1 [2]) was “the FaVPT1-expressed yeast strain could take up both esculin and sucrose”.
